pEC50, pIC50: −log10 of the molar value. Where only a bound is given, the exact number is not on record here.

One assay addresses Protein fem-1 homolog B (Homo sapiens, UniProt Q9UK73). In words: Binding affinity to FEM1B (unknown origin).
Assay [1] addresses T1, Bromodomain-containing protein 4 (Homo sapiens, UniProt O60885). In words: Induction of BRD4 degradation in 231MFP cells. Format: cell-based.
Assay [2] deals with T1, Bromodomain-containing protein 4. In words: Induction of BRD4 degradation in HEK293 cells assessed as maximum degradation after 8 hrs relative to control. The class given is cell-based.
Assay [3] has the same target. As to the kind of experiment: Induction of BRD4 degradation in HEK293 cells after 8 hrs. Format: cell-based.
For another assay, the target named is Protein cereblon (Homo sapiens, UniProt Q96SW2). As to the kind of experiment: Displacement of dBET6 from CRBN (unknown origin) transfected in BRD4 BD2-GFP mCherry report cells incubated for 5 hrs.
Assay [4] concerns the target T2, Tyrosine-protein kinase BTK (Homo sapiens, UniProt Q06187). In words: Induction of BTK degradation in human MOLM-14 cells assessed as maximum degradation at 200 nM relative to control. Format: cell-based.
The next assay relates to MOLM-14. As to the kind of experiment: Antiproliferative activity against human MOLM-14 cells. Format: functional, cell-based.
Assay [5] is described as follows: Antiproliferative activity against human MINO cells. Format: functional, cell-based.
Assay [6] has as its target T2, Tyrosine-protein kinase BTK. In words: Induction of BTK degradation in human MOLM-14 cells. Format: cell-based.
Assay [7] concerns RPMI-8226. As to the kind of experiment: Antiproliferative activity against human RPMI-8226 cells. The class given is functional, cell-based.
Assay [8] can be described thus: Induction of hRpn13Pru degradation in human RPMI-8226 cells. Format: cell-based.
Assay [9] relates to RPMI-8226. In words: Induction of hRpn13Pru degradation in human RPMI-8226 cells assessed as maximum degradation at 50 uM relative to control. Format: cell-based.
The target of assay [10] is Serine/threonine-protein kinase Sgk3 (Homo sapiens) (UniProt Q96BR1). As to the kind of experiment: Induction of SGK3 degradation in HEK293 cells assessed as maximum degradation after 30 mins relative to control. Format: cell-based.
Assay [11] has the same target. As to the kind of experiment: Induction of SGK3 degradation in HEK293 cells assessed as maximum degradation at 300 nM after 48 hrs relative to control. Format: cell-based.
The target in assay [12] is T3, Phosphatidylinositol 3-kinase catalytic subunit type 3 (Homo sapiens, UniProt Q8NEB9). In words: Induction of VPS34 degradation in HEK293 cells assessed as maximum degradation after 30 mins relative to control. Format: cell-based.
The target of assay [13] is Serine/threonine-protein kinase Sgk3 (Homo sapiens, UniProt Q96BR1). In words: Induction of SGK3 degradation in HEK293 cells. Format: cell-based.
Assay [14] has as its target T3, Phosphatidylinositol 3-kinase catalytic subunit type 3. As to the kind of experiment: Induction of VPS34 degradation in HEK293 cells. Format: cell-based.
Assay [15] shares this target. In words: Induction of VPS34 degradation in HEK293 cells assessed as maximum degradation at 300 nM after 48 hrs relative to control. The class given is cell-based.
Assay [16] deals with Hepatitis C virus. As to the kind of experiment: Antiviral activity against wild type HCV. The class given is functional, organism-based, Hepacivirus hominis.
Assay [17] is described as follows: Induction of HCV NS3 degradation after 4 hrs. On the set-up: species or system Hepacivirus hominis.
The target in assay [18] is Hepatitis C virus serine protease, NS3/NS4A (Hepatitis C virus, UniProt A3EZI9+D2K2A8). As to the kind of experiment: Inhibition of HCV NS3/4a protease in Huh7.5 SGR cells using [Ac-DE-D(Edans)-EE-Abu-[COO]AS-K(Dabcyl)-NH2] as substrate preincubated for 15 mins followed by substrate addition and incubated for 1 hr by FRET assay. Format: cell-based, Hepacivirus hominis.

Assay [19] relates to Hepatitis C virus. As to the kind of experiment: Antiviral activity against HCV harboring NS3 V55A mutant. Format: functional, organism-based, Hepacivirus hominis.
A further assay deals with NCI-H1975. In words: Antiproliferative activity against human NCI-H1975 cells harboring EGFR L858R/T790M double mutant. Format: functional, cell-based.
Assay [20] concerns the target von Hippel-Lindau disease tumor suppressor/Epidermal growth factor receptor (Homo sapiens, UniProt P00533+P40337). As to the kind of experiment: Protac activity at VHL/EGFR Del19 mutant in human HCC827 cells. The class given is cell-based.
Assay [21] concerns HCC827. In words: Antitumor activity against human HCC827 cells xenografted in mouse assessed as tumor growth inhibition at 30 mg/kg. Format: functional. The conditions noted are these: read-out: TGI.
For assay [22], the system named is HCC827. As to the kind of experiment: Antiproliferative activity against human HCC827 cells harboring EGFRDel19 mutant. Format: functional, cell-based.
Assay [23] concerns von Hippel-Lindau disease tumor suppressor/Epidermal growth factor receptor (Homo sapiens), P00533+P40337 [UNDEFINED MUTATION]. As to the kind of experiment: Protac activity at VHL/EGFR Del19 mutant in human HCC827 cells assessed as maximum degradation relative to control. Format: cell-based.
In assay [24] the target is E3 ubiquitin-protein ligase RNF114 (Homo sapiens, UniProt Q9Y508). In words: Binding affinity to RNF114 (unknown origin).
The target in assay [25] is T1, Bromodomain-containing protein 4. As to the kind of experiment: Induction of BRD4 long isoform degradation in human 231MFP cells. The class given is cell-based.
The target is the same in assay [26]. As to the kind of experiment: Induction of BRD4 short isoform degradation in human 231MFP cells. The class given is cell-based.
A further assay relates to CWR22R. As to the kind of experiment: Antiproliferative activity against human 22Rv1 cells after 72 hrs. Format: functional, cell-based. Conditions: 22Rv1, 72 h.
The next assay has as its system PC-3. In words: Antiproliferative activity against human PC-3 cells after 72 hrs. The class given is functional, cell-based. Conditions: PC-3, 72 h.
Assay [27] has as its target Cyclin-dependent kinase 9 (Homo sapiens) (UniProt P50750). As to the kind of experiment: Induction of CDK9 degradation in human MOLT-4 cells assessed as maximum degradation after 16 hrs relative to control. Format: cell-based.
The test system of a further assay is HEK293. As to the kind of experiment: Induction of HaloTag7 fused GFP degradation in HEK293 cells assessed as maximum degradation relative to control. The class given is cell-based. The conditions noted are these: Homo sapiens.
The target of assay [28] is von Hippel-Lindau disease tumor suppressor (Homo sapiens, UniProt P40337). In words: Binding affinity to VHL (unknown origin).
Assay [29] is described as follows: Induction of HaloTag7 fused GFP degradation in HEK293 cells. Format: cell-based. The conditions noted are these: Homo sapiens.

T3 sequence (Q8NEB9 whole entry): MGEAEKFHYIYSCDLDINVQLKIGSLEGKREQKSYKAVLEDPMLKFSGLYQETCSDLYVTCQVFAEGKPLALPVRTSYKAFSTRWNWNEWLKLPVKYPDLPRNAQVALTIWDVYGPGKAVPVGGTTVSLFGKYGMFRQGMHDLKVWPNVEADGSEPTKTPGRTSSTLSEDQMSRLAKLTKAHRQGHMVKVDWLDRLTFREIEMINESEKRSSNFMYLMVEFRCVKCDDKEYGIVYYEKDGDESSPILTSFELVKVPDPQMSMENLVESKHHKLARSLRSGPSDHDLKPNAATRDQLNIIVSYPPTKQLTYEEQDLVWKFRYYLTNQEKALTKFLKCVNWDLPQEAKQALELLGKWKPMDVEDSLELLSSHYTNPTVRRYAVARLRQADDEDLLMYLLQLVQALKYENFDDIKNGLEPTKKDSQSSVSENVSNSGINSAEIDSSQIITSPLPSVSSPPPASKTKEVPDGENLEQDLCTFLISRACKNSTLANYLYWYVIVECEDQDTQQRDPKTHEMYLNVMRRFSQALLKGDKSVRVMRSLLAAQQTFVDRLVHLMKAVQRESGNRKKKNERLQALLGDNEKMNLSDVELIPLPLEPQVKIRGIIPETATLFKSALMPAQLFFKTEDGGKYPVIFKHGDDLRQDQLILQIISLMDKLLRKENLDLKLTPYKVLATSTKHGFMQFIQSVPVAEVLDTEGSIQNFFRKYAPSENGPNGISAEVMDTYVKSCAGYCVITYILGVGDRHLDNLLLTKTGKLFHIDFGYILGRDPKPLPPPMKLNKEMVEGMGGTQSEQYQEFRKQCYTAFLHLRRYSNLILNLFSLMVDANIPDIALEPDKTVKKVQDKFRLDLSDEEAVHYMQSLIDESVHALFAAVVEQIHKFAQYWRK
Sequence of Serine/threonine-protein kinase Sgk3 (Homo sapiens) (Q96BR1 whole entry): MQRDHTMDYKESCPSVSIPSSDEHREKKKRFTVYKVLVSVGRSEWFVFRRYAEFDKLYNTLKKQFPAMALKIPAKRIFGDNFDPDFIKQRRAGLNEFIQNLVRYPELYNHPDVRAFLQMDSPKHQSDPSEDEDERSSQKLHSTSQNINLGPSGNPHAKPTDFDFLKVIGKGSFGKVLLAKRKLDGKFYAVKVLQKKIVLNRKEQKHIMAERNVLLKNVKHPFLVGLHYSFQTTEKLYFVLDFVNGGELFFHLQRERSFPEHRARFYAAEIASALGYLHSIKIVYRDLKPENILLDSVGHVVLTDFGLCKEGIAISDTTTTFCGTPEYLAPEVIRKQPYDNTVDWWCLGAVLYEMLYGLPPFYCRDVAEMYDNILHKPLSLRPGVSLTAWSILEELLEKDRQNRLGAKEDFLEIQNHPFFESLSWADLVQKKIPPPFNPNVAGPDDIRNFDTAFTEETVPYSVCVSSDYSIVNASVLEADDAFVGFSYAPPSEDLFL
T2 sequence (Q06187 whole entry): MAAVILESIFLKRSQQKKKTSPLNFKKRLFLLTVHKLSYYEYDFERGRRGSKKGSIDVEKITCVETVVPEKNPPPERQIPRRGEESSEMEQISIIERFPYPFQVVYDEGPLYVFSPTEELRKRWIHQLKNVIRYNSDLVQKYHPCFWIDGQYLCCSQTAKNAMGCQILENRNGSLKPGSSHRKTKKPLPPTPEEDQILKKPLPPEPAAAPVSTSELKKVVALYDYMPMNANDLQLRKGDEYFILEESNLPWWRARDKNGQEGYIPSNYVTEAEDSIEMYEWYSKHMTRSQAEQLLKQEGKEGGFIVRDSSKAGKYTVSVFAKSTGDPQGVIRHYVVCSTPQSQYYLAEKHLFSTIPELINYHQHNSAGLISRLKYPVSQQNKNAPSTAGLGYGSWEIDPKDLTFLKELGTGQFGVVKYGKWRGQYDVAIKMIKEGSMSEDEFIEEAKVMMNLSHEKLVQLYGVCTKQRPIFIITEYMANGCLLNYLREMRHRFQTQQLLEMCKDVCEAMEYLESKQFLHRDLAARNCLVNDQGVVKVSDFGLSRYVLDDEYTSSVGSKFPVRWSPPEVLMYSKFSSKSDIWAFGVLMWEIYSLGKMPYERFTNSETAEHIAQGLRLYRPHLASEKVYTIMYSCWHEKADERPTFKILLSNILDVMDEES
Sequence of Serine/threonine-protein kinase Sgk3 (Q96BR1 whole entry): as the sequence (Q96BR1 whole entry) above
Sequence of von Hippel-Lindau disease tumor suppressor/Epidermal growth factor receptor (P00533 whole entry, looked up, stated change not applied): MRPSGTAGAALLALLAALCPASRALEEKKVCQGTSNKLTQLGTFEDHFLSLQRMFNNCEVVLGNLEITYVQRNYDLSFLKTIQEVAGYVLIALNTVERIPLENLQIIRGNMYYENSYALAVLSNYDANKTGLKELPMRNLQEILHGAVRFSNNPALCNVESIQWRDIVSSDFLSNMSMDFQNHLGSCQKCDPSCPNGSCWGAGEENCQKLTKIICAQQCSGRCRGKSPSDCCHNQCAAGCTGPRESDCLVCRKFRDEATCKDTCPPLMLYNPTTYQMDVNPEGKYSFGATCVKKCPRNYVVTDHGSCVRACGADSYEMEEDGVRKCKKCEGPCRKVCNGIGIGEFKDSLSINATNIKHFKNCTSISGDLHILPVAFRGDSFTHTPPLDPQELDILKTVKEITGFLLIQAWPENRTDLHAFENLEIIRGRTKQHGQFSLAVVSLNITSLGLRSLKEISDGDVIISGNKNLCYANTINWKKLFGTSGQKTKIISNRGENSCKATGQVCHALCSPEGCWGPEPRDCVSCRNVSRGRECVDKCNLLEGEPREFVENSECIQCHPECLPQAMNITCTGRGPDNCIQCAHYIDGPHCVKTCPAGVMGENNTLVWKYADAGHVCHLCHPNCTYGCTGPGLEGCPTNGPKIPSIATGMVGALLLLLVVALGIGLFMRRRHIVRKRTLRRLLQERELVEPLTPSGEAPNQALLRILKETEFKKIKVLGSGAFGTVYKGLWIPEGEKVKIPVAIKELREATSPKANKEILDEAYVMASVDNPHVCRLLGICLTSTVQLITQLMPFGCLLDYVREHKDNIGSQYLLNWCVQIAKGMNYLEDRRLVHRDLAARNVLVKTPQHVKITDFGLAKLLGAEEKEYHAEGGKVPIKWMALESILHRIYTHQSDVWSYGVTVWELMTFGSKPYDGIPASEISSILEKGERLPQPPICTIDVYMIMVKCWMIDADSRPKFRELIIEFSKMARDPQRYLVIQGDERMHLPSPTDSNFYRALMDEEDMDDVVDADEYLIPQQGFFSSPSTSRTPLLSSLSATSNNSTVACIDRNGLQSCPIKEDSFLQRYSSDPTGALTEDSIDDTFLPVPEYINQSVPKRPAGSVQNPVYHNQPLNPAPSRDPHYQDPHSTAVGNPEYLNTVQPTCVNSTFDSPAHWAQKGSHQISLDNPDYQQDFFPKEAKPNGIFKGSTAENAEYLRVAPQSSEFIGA
Sequence of von Hippel-Lindau disease tumor suppressor/Epidermal growth factor receptor (P40337 whole entry, looked up, stated change not applied): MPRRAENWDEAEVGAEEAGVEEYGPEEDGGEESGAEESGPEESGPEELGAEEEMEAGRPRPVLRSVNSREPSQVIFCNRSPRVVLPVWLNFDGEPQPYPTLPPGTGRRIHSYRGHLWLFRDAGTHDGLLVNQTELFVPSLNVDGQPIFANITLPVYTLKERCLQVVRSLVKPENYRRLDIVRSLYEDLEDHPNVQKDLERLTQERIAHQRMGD
Sequence of von Hippel-Lindau disease tumor suppressor/Epidermal growth factor receptor (Homo sapiens), P00533+P40337 [UNDEFINED MUTATION] (P00533 whole entry, looked up, stated change not applied): as the sequence (P00533 whole entry, looked up, stated change not applied) above
Sequence of von Hippel-Lindau disease tumor suppressor/Epidermal growth factor receptor (Homo sapiens), P00533+P40337 [UNDEFINED MUTATION] (P40337 whole entry, looked up, stated change not applied): as the sequence (P40337 whole entry, looked up, stated change not applied) above
Sequence of von Hippel-Lindau disease tumor suppressor (P40337 whole entry, the tested form may be a part): as the sequence (P40337 whole entry, looked up, stated change not applied) above
Sequence of E3 ubiquitin-protein ligase RNF114 (Q9Y508 whole entry, canonical isoform): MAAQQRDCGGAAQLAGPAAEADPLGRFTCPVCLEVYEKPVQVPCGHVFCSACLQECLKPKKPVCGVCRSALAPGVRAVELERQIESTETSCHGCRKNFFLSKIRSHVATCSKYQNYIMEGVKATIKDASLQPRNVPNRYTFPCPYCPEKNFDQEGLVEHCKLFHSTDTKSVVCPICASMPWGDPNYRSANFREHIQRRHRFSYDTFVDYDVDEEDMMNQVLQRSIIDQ

`Cc1sc2c(c1C)C(c1ccc(Cl)cc1)=N[C@@H](CC(=O)NCCCCCNC(=O)CN1CCOc3cc(N(CCC#N)C(=O)CCl)ccc31)c1nnc(C)n1-2` had a pIC50 at Protein fem-1 homolog B of 5.82. For the same molecule, the values for the DC50 in assay [1] and in assay [3] were 198 nM and 250 nM, respectively. In addition, the Emax in [2] turned out to be 94%.
At Protein cereblon, `C=CC(=O)N1CCN(c2nc(NCCCN3CCN(CCCNc4cccc5c4C(=O)N(C4CCC(=O)NC4=O)C5=O)CC3)nc3c(F)c(-c4cc(O)cc5ccccc45)c(Cl)cc23)CC1` (stereo unspecified) gave a pEC50 of 7.10.
As to `CN(CCCNC(=O)CNc1cccc2c1C(=O)N(C1CCC(=O)NC1=O)C2=O)C(C)(C)/C=C(\C#N)C(=O)N1CCC[C@@H](n2nc(-c3ccc(Oc4ccccc4)cc3)c3c(N)ncnc32)C1` (stereo partly specified), the Emax in assay [4] was 81%. The pIC50 was 6.52 with MOLM-14 and 7.10 in assay [5]. In addition, the DC50 in assay [6] is 6.6 nM.
In turn, `Cc1ncsc1-c1ccc([C@H](C)NC(=O)[C@@H]2C[C@@H](O)CN2C(=O)[C@@H](NC(=O)CCCCc2cn(-c3ccc(C(=O)Nc4cccc(/C=C(\C#N)C(=O)Nc5ccccc5C(=O)O)c4)cc3)nn2)C(C)(C)C)cc1` had a pIC50 in the assay on RPMI-8226 [7] of 5.38. This molecule yielded a DC50 in [8] of 39000 nM. In addition, in the assay on RPMI-8226 [9], the Emax was found to be 80%.
Turning to `Cc1ncsc1-c1ccc(CNC(=O)[C@@H]2C[C@@H](O)CN2C(=O)[C@@H](NC(=O)C2(C#N)CC2)C(C)(C)C)c(OCCOCCOCCOCCCCCCCl)c1`, the Emax in assay [10] amounted to 50%; in [11], 95%; in assay [12], 50%; in [15], 95%. Moreover, the DC50 in assay [13] and in assay [14] was 3 nM each time.
As for `CCC[C@H](NC(=O)[C@@H]1[C@H]2CCC[C@H]2CN1C(=O)[C@@H](NC(=O)[C@@H](NC(=O)c1cnc(C(=O)NCCOCCOCCOc2cc3c4c(cccc4c2)C(=O)N(C2CCC(=O)NC2=O)C3=O)cn1)C1CCCCC1)C(C)(C)C)C(=O)C(=O)NC1CC1` (stereo partly specified), the pIC50 is 6.25 with Hepatitis C virus [16], 6.61 in assay [18] and 6.29 with Hepatitis C virus [19]. In [17], this molecule came in with a DC50 of 50 nM.
In the case of `Cc1ncsc1-c1ccc(CNC(=O)[C@H]2C[C@H](O)CN2C(=O)[C@H](NC(=O)CCCCCCCCCCn2cc(COc3cc4ncnc(Nc5ccc(F)c(Cl)c5)c4cc3NC(=O)/C=C/N3CCCCC3)nn2)C(C)(C)C)cc1`, the pIC50 with NCI-H1975 is below 7.70; in the assay on HCC827 [22], 8.22. Further, the DC50 in assay [20] came out at 3.57 nM. Besides, the inhibition in vivo at 30 mg/kg in the assay with HCC827 [21] turned out to be 90%. The Emax in [23] was determined as 91%.
`COC(=O)C[C@H]1[C@]2(C)C3=C(C)[C@H](c4ccoc4-c4ccc(C(=O)NCCCNC(=O)C[C@@H]5N=C(c6ccc(Cl)cc6)C6C(C)=C(C)SC6n6c(C)nnc65)cc4)C[C@H]3O[C@@H]2C2OC(=O)[C@]3(C)C=CC(=O)[C@@]1(C)[C@@H]23` (stereo partly specified) gave a pIC50 in assay [24] of 6.62.
Regarding `Cc1sc2c(c1C)C(c1ccc(Cl)cc1)=N[C@@H](CC(=O)NCCCCOc1ccc(C3CC(c4ccc(Br)cc4)=NN3C(=O)CCl)cc1)c1nnc(C)n1-2` (stereo partly specified), the DC50 in assay [25] was 36 nM; in assay [26], 14 nM.
Regarding `COc1cc(/C=C/C(=O)N2CCC=CC2=O)cc(OC)c1OCCN1CCN(C(=O)CN2CCC(C(=O)Nc3ncc(SCc4ncc(C(C)(C)C)o4)s3)CC2)CC1`, the pEC50 in the assay on CWR22R was 8.36; in the assay on PC-3, 8.19. The Emax in [27] was determined as 96%.
As for `Cc1ncsc1-c1ccc(CNC(=O)[C@@H]2C[C@@H](O)CN2C(=O)[C@H](C(C)C)N2Cc3ccccc3C2=O)c(OCCOCCOCCOCCCCCCCl)c1`, in the assay on HEK293, the Emax is 90%. This molecule also had a pIC50 in assay [28] of 6.27. Besides, the DC50 in assay [29] came out at 19 nM.

One may read the pIC50 as the IC50 on a negative log10 scale, so that one unit is a factor of ten. Higher therefore signals a small IC50. One may read the pEC50 as −log10 of the EC50, conventionally taken in molar units. Low readings indicate a high EC50, high ones a low EC50.

Values taken from ChEMBL document CHEMBL5223100, “Homobivalent, Trivalent, and Covalent PROTACs: Emerging Strategies for Protein Degradation” (J Med Chem, 2022).
